Test results reported in patent publication US9688671B2, “Metalloenzyme inhibitor compounds” (Viamet Pharmaceuticals, Inc., priority 2013, dated 2017).
Converted amounts (≈) assume the structure as drawn.

How the values were obtained:
C. albicans = assay: Minimum Inhibitory Concentration (MIC), C. albicans growth inhibition (CLSI M27-A2); type: cell-based; conditions: Candida albicans; about 50% growth reduction; approximately 48 h at 35±1° C.; RPMI+MOPS
Method: Compounds were assessed for their ability to inhibit the growth of common strains of fungus, C. albicans using a standardized procedure (CLSI M27-A2). Stock solutions of the test compounds and standards were prepared in DMSO at 1600 μg/mL (C. albicans). Eleven, serial, one-half dilutions of compounds were prepared in 96-well plates in RPMI+MOPS. The assay concentration ranges were 1-0.001 μg/mL (C. albicans). Cell suspensions of C. albicans were prepared and added to each well at concentrations of approximately 3.7×10^3 colony-forming-units per milliliter (cfu/mL). All testing was in duplicate. The inoculated plates were incubated for approximately 48 h at 35±1° C. At the completion of incubation the wells of each plate were evaluated visually for the presence of fungal growth. […] For voriconazole the MIC was the concentration which reduced C. albicans growth by 50% (per CLSI, M27-A2). For QC purposes C. krusei isolate ATCC 6258 (4.0×10^3 cfu/mL) was included in the VOR assay.

A. fumigatus = A. fumigatus MIC (CLSI M38-A2); conditions: Aspergillus fumigatus, read-out: Aspergillus MIC (Aspergillus fumigatus MIC50)
Coccidioides posadasii = assay: microbe, parasite or virus in culture; type: cell-based; conditions: 48 h

SMILES | MIC50 (C. albicans) | MIC50 (A. fumigatus) | MIC50 (Coccidioides posadasii)
N#Cc1ccc(CC(=O)c2ccc(C#Cc3ccc(C(F)(F)C(O)(Cn4cnnn4)c4ccc(F)cc4F)nc3)cc2)cc1 (racemic) [Example 1, 4-(2-(4-((6-(2-(2,4-difluorophenyl)-1,1-difluoro-2-hydroxy-3-(1H-tetrazol-1-yl)propyl)pyridin-3-yl)ethynyl)phenyl)-2-oxoethyl)benzonitrile] | 0.004 µg/mL (≈ 0.00671 µM) | 0.5 µg/mL (≈ 0.838 µM) | –
N#Cc1ccc(NCc2ccc(C#Cc3ccc(C(F)(F)C(O)(Cn4cnnn4)c4ccc(F)cc4F)nc3)cc2)cc1 (racemic) [Example 2, 4-(4-((6-(2-(2,4-difluorophenyl)-1,1-difluoro-2-hydroxy-3-(1H-tetrazol-1-yl)propyl)pyridin-3-yl)ethynyl)benzylamino)benzonitrile] | 0.016 µg/mL (≈ 0.0274 µM) | 1 µg/mL (≈ 1.71 µM) | –
OC(Cn1cnnn1)(c1ccc(F)cc1F)C(F)(F)c1ccc(C#Cc2ccc(OCc3ccc(C(F)(F)F)s3)cc2)cn1 (racemic) [Example 5, 2-(2,4-difluorophenyl)-1,1-difluoro-3-(1H-tetrazol-1-yl)-1-(5-((4-((5-(trifluoromethyl)thiophen-2-yl)methoxy)phenyl)ethynyl)pyridin-2-yl)propan-2-ol] | – | – | 0.12 µg/mL (≈ 0.189 µM)
OC(Cn1cnnn1)(c1ccc(F)cc1F)C(F)(F)c1ccc(C#Cc2ccc(OCc3ccc(F)s3)cc2)cn1 (racemic) [Example 6, 2-(2,4-difluorophenyl)-1,1-difluoro-1-(5-((4-((5-fluorothiophen-2-yl)methoxy)phenyl)ethynyl)pyridin-2-yl)-3-(1H-tetrazol-1-yl)propan-2-ol] | 0.008 µg/mL (≈ 0.0137 µM) | 0.5 µg/mL (≈ 0.857 µM) | –
OC(Cn1cnnn1)(c1ccc(F)cc1F)C(F)(F)c1ccc(C#Cc2ccc(CNc3ccc(Cl)cc3)cc2)cn1 (racemic) [Example 7, 1-(5-((4-((4-chlorophenylamino)methyl)phenyl)ethynyl)pyridin-2-yl)-2-(2,4-difluorophenyl)-1,1-difluoro-3-(1H-tetrazol-1-yl)propan-2-ol] | – | – | 0.12 µg/mL (≈ 0.202 µM)
OC(Cn1cnnn1)(c1ccc(F)cc1F)C(F)(F)c1ccc(C#Cc2ccc(CNc3ccc(F)cc3)cc2)cn1 (racemic) [Example 8, 2-(2,4-difluorophenyl)-1,1-difluoro-1-(5-((4-((4-fluorophenylamino)methyl)phenyl)ethynyl)pyridin-2-yl)-3-(1H-tetrazol-1-yl)propan-2-ol] | 0.004 µg/mL (≈ 0.00694 µM) | 0.5 µg/mL (≈ 0.867 µM) | –
CN(C)Cc1ccc(COc2ccc(C#Cc3ccc(C(F)(F)C(O)(Cn4cnnn4)c4ccc(F)cc4F)nc3)cc2)cc1 (racemic) [Example 11, 2-(2,4-difluorophenyl)-1-(5-((4-(4-((dimethylamino)methyl)benzyloxy)phenyl)ethynyl)pyridin-2-yl)-1,1-difluoro-3-(1H-tetrazol-1-yl)propan-2-ol] | 0.016 µg/mL (≈ 0.0259 µM) | 0.5 µg/mL (≈ 0.811 µM) | –
OC(Cn1cnnn1)(c1ccc(F)cc1F)C(F)(F)c1ccc(C#Cc2ccc(OCc3ccc(Cn4cccn4)cc3)cc2)cn1 (racemic) [Example 13] | 0.016 µg/mL (≈ 0.025 µM) | 0.25 µg/mL (≈ 0.391 µM) | –
C[C@@H](c1ncncc1F)[C@](O)(Cn1cncn1)c1ccc(F)cc1F [Voriconazole, voriconazole, reference compound] | 0.016 µg/mL (≈ 0.0458 µM) | 0.25 µg/mL (≈ 0.716 µM) | –
